Test results from patent US6706663B2, “Herbicidal 3-heterocyclic substituted benzisothiazole and benzisoxazole compounds” (Wyeth, priority 2000, dated 2004).

Key:
ORYSAT (Rice, Tebonnet) [1] = test: Postemergence herbicidal evaluation; type: in vivo, Oryza sativa, (L.) Tebonnet
Summary of the method: (§1)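 Seedlings grown for about two weeks were sprayed postemergence and then kept under standard greenhouse care. Injury was rated visually 4–5 weeks after treatment on a 0–9 scale against untreated controls, and ratings from repeat tests were averaged.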

[2] = tested on: IPOHE (Ipomoea hederacea); test: Preemergence herbicidal evaluation; type: in vivo, (L.) Jacq.; conditions: rated 4-5 weeks after treatment
[3] = tested on: ECHCG (Echinochloa crus-galli); test: Postemergence herbicidal evaluation; type: in vivo, (L.) Beau
Summary of the method: as §1

[4] = tested on: ABUTH (Abutilon theophrasti); test: Preemergence herbicidal evaluation; type: in vivo, Medic.; conditions: rated 4-5 weeks after treatment
GALAP (Galium aparine) [5] = test: Postemergence herbicidal evaluation; type: in vivo
Summary of the method: as §1

ORYSAT (Rice, Tebonnet) [6] = test: Flooded paddy, post-transplant rice tolerance; type: in vivo, Oryza sativa, (L.) Tebonnet; conditions: flooded paddy, post-transplant rice, rated 3-4 weeks after treatment, 0-9 rating scale
Summary of the method: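 Two ten-day-old Tebonnet rice seedlings transplanted into silt loam, then flooded with water held at 1.5–3 cm above soil; herbicide applied post-transplant. Plants kept in greenhouse and rated visually 0–9 versus untreated control for stand, vigor, malformation, size and chlorosis.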

[7] = tested on: ABUTH (Abutilon theophrasti); test: Postemergence herbicidal evaluation; type: in vivo, Medic.
Summary of the method: as §1

ORYSAT (Rice, Tebonnet) [8] = test: Preemergence herbicidal evaluation; type: in vivo, Oryza sativa, (L.) Tebonnet; conditions: rated 4-5 weeks after treatment
[9] = tested on: CYPSE (Cyperus serotinus); test: Flooded paddy, preemergence weed control; type: in vivo, Rottb.; conditions: rated 3-4 weeks after treatment, 0-9 rating scale
Summary of the method: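 Seeds or propagules were planted 0.5 cm deep in silt loam and flooded to 1.5–3 cm. Compounds in 50/50 v/v aqueous/acetone were pipetted into the flood water at about 0.0080 to 0.1250 kg/ha. After 3–4 weeks in the greenhouse, effect was rated visually on a 0–9 scale versus untreated control.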

[10] = tested on: AMBEL (Ambrosia artemisifolia); test: Postemergence herbicidal evaluation; type: in vivo, L.
Summary of the method: as §1

[11] = tested on: CASOB (Cassia obtusifolia); test: Postemergence herbicidal evaluation; type: in vivo, L.
Summary of the method: as §1

[12] = tested on: CHEAL (Chenopodium album); test: Postemergence herbicidal evaluation; type: in vivo, L.
Summary of the method: as §1

[13] = tested on: SAGPY (Sagittaria pygmaea); test: Flooded paddy, preemergence weed control; type: in vivo, L.; conditions: rated 3-4 weeks after treatment, 0-9 rating scale
Summary of the method: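 In this preemergence paddy assay, weed seeds or organs are sown at up to 0.5 cm in silt loam and covered by 1.5–3 cm of water for the full test period. After treatment the pots are kept in a greenhouse, and herbicidal effect is rated 0-9 visually against a control.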

GALAP (Galium aparine) [14] = test: Preemergence herbicidal evaluation; type: in vivo; conditions: rated 4-5 weeks after treatment
Summary of the method: (§2)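 Greenhouse preemergence test: freshly planted cups were sprayed once with an aqueous acetone solution of compound. Injury was judged visually on a 0–9 scale relative to a control, four to five weeks later.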

[15] = tested on: GLXMAW (Soybean, Williams); test: Postemergence herbicidal evaluation; type: in vivo, Glycine max, (L.) Merr. cv Williams
Summary of the method: as §1

[16] = tested on: AMBEL (Ambrosia artemisifolia); test: Preemergence herbicidal evaluation; type: in vivo, L.; conditions: rated 4-5 weeks after treatment
Summary of the method: as §2

[17] = tested on: CASOB (Cassia obtusifolia); test: Preemergence herbicidal evaluation; type: in vivo, L.; conditions: rated 4-5 weeks after treatment
Summary of the method: as §2

[18] = tested on: CHEAL (Chenopodium album); test: Preemergence herbicidal evaluation; type: in vivo, L.; conditions: rated 4-5 weeks after treatment
Summary of the method: as §2

[19] = tested on: TRZAWR (Wheat, Winter, cv Riband); test: Preemergence herbicidal evaluation; type: in vivo, Triticum aestivum; conditions: rated 4-5 weeks after treatment
Summary of the method: as §2

ZEAMX (Corn, Field) = test: Postemergence herbicidal evaluation; type: in vivo, Zea mays, L.
Summary of the method: as §1

With `Cc1cccnc1-c1nsc2cc(F)c(-n3c(=O)cc(C(F)(F)F)n(C)c3=O)cc12` [Compound 44, 3-[6-fluoro-3-(3-methyl-2-pyridyl)-1,2-benzisothiazol-5-yl]-1-methyl-6-(trifluoromethyl)uracil] the “Postemergence herbicidal rating, ORYSAT” value (ORYSAT (Rice, Tebonnet) [1]; rate 0.0320 kg/ha) was 2.0, the “Postemergence herbicidal rating, ORYSAT” value (ORYSAT (Rice, Tebonnet) [1]; rate 0.0620 kg/ha) was 3.5 and the “Preemergence herbicidal rating IPOHE” value ([2]; Rate 0.0620 kg/ha) was 3.0. The “Preemergence herbicidal rating IPOHE” value ([2]; Rate 0.1250 kg/ha) was 7.5, the “Preemergence herbicidal rating IPOHE” value ([2]; Rate 0.2500 kg/ha) was 9.0 and the “Postemergence herbicidal rating, ECHCG” value ([3]; rate 0.0320 kg/ha) was 1.0. The “Postemergence herbicidal rating, ECHCG” value ([3]; rate 0.0620 kg/ha) was 3.0, the “Preemergence herbicidal rating ABUTH” value ([4]; Rate 0.0620 kg/ha) was 9.0 and the “Preemergence herbicidal rating ABUTH” value ([4]; Rate 0.1250 kg/ha) was 9.0. For the same compound, the “Preemergence herbicidal rating ABUTH” value ([4]; Rate 0.2500 kg/ha) was 9.0, the “Postemergence herbicidal rating, GALAP” value (GALAP (Galium aparine) [5]; rate 0.0320 kg/ha) was 4.0 and the “Postemergence herbicidal rating, GALAP” value (GALAP (Galium aparine) [5]; rate 0.0620 kg/ha) was 7.0. For the same compound, the “herbicidal rating, ORYSAT (rice tolerance)” value (ORYSAT (Rice, Tebonnet) [6]; rate 0.0080 kg/ha) was 0.0, the “herbicidal rating, ORYSAT (rice tolerance)” value (ORYSAT (Rice, Tebonnet) [6]; rate 0.0320 kg/ha) was 7.5 and the “herbicidal rating, ORYSAT (rice tolerance)” value (ORYSAT (Rice, Tebonnet) [6]; rate 0.1250 kg/ha) was 7.5. The “Postemergence herbicidal rating, ABUTH” value ([7]; rate 0.0320 kg/ha) was 9.0, the “Postemergence herbicidal rating, ABUTH” value ([7]; rate 0.0620 kg/ha) was 9.0 and the “Preemergence herbicidal rating ORYSAT” value (ORYSAT (Rice, Tebonnet) [8]; Rate 0.0620 kg/ha) was 6.5. The “Preemergence herbicidal rating ORYSAT” value (ORYSAT (Rice, Tebonnet) [8]; Rate 0.1250 kg/ha) was 8.0, the “Preemergence herbicidal rating ORYSAT” value (ORYSAT (Rice, Tebonnet) [8]; Rate 0.2500 kg/ha) was 8.0 and the “herbicidal rating, CYPSE” value ([9]; rate 0.0080 kg/ha) was 0.0. The “herbicidal rating, CYPSE” value ([9]; rate 0.0320 kg/ha) was 9.0, the “herbicidal rating, CYPSE” value ([9]; rate 0.1250 kg/ha) was 9.0 and the “Postemergence herbicidal rating, AMBEL” value ([10]; rate 0.0320 kg/ha) was 9.0. For the same compound, the “Postemergence herbicidal rating, AMBEL” value ([10]; rate 0.0620 kg/ha) was 9.0, the “Postemergence herbicidal rating, CASOB” value ([11]; rate 0.0320 kg/ha) was 2.0 and the “Postemergence herbicidal rating, CASOB” value ([11]; rate 0.0620 kg/ha) was 4.0. For the same compound, the “Postemergence herbicidal rating, CHEAL” value ([12]; rate 0.0320 kg/ha) was 9.0, the “Postemergence herbicidal rating, CHEAL” value ([12]; rate 0.0620 kg/ha) was 9.0 and the “herbicidal rating, SAGPY” value ([13]; rate 0.0080 kg/ha) was 0.0. For the same compound, the “herbicidal rating, SAGPY” value ([13]; rate 0.0320 kg/ha) was 4.5, the “herbicidal rating, SAGPY” value ([13]; rate 0.1250 kg/ha) was 9.0 and the “Preemergence herbicidal rating GALAP” value (GALAP (Galium aparine) [14]; Rate 0.0620 kg/ha) was 0.0. For the same compound, the “Preemergence herbicidal rating GALAP” value (GALAP (Galium aparine) [14]; Rate 0.1250 kg/ha) was 9.0, the “Preemergence herbicidal rating GALAP” value (GALAP (Galium aparine) [14]; Rate 0.2500 kg/ha) was 9.0 and the “Postemergence herbicidal rating, GLXMAW” value ([15]; rate 0.0320 kg/ha) was 8.5. For the same compound, the “Postemergence herbicidal rating, GLXMAW” value ([15]; rate 0.0620 kg/ha) was 8.5, the “Preemergence herbicidal rating AMBEL” value ([16]; Rate 0.0620 kg/ha) was 8.0 and the “Preemergence herbicidal rating AMBEL” value ([16]; Rate 0.1250 kg/ha) was 9.0. For the same compound, the “Preemergence herbicidal rating AMBEL” value ([16]; Rate 0.2500 kg/ha) was 9.0, the “Preemergence herbicidal rating CASOB” value ([17]; Rate 0.0620 kg/ha) was 1.0 and the “Preemergence herbicidal rating CASOB” value ([17]; Rate 0.1250 kg/ha) was 5.5. For the same compound, the “Preemergence herbicidal rating CASOB” value ([17]; Rate 0.2500 kg/ha) was 9.0, the “Preemergence herbicidal rating CHEAL” value ([18]; Rate 0.0620 kg/ha) was 9.0 and the “Preemergence herbicidal rating CHEAL” value ([18]; Rate 0.1250 kg/ha) was 9.0. The “Preemergence herbicidal rating CHEAL” value ([18]; Rate 0.2500 kg/ha) was 9.0, the “Preemergence herbicidal rating TRZAWR” value ([19]; Rate 0.0620 kg/ha) was 6.0 and the “Preemergence herbicidal rating TRZAWR” value ([19]; Rate 0.1250 kg/ha) was 7.0. The “Preemergence herbicidal rating TRZAWR” value ([19]; Rate 0.2500 kg/ha) was 9.0, the “Postemergence herbicidal rating, ZEAMX” value (ZEAMX (Corn, Field); rate 0.0320 kg/ha) was 5.0 and the “Postemergence herbicidal rating, ZEAMX” value (ZEAMX (Corn, Field); rate 0.0620 kg/ha) was 5.5.
